Consider 25 compounds from patent publication US10815247B2, “Functionalized NANOLUC inhibitors” (PROMEGA CORPORATION, priority 2016, dated 2020).

Sequence of NanoLuc (Q9GV45 28-196 with tags or gaps with the stated changes limits assumed): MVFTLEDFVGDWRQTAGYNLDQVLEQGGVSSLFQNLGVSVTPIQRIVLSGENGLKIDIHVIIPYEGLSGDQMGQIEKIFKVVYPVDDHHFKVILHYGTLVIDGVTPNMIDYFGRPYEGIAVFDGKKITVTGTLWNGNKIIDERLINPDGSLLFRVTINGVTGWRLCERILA

One experiment addresses NanoLuc (Oplophorus gracilirostris, UniProt Q9GV45, A31E/A60N/A81I/F95D/I117V/K70R/L54V/L99Q/M102K/N193R/P142E/Q151K/Q38R/Q45L/V71I/Y165I). As to the kind of experiment: Inhibitor IC50 determination. It is filed as biochemical.
Details: not given
As for the experimental part:
The following example provides the IC50 values for the compounds disclosed herein. NANOLUC® enzyme was diluted to 0.4 ng/ml in CO2 independent media+10% FBS to make the detection reagent. A 3× dilution series of each inhibitor was then made in the detection reagent. A “no inhibitor” control was also made for each sample. 50 ul of each inhibitor dilution was mixed with 50 ul of NanoGlo® buffer containing 20 μM furimazine (final furimazine concentration is 10 μM, which is at Km.), and luminescence was measured. Each sample was normalized to the “no inhibitor” control. The IC50 values were then determined using GraphPad Prism (log[inhibitor] vs. normalized response).
A word on the IC50: it is the concentration that inhibits the measured activity by half. The compound `CCN(C(=O)Cn1c(C(=O)N[C@H]2CC[C@H](C(=O)NCCCCCCNC(=O)c3ccc4c(c3)C(=O)OC43c4ccc(O)cc4Oc4cc(O)ccc43)CC2)cc2sccc21)c1cccc(C)c1` [JRW-0200, N-(trans-4-((6-(3′,6′-dihydroxy-3-oxo-3H-spiro[isobenzofuran-1,9′-xanthene]-5-carboxamido)hexyl)carbamoyl)cyclohexyl)-4-(2-(ethyl(m-tolyl)amino)-2-oxoethyl)-4H-thieno[3,2-b]pyrrole-5-carboxamide] had an IC50 of 49 nM.

Compound `CCN(C(=O)Cn1c(C(=O)N[C@H]2CC[C@H](C(=O)OC)CC2)cc2sccc21)c1cccc(CBr)c1` [JRW-0466, methyl trans-4-(4-(2-((3-(bromomethyl)phenyl)(ethyl)amino)-2-oxoethyl)-4H-thieno[3,2-b]pyrrole-5-carboxamido)cyclohexane-1-carboxylate] displayed an IC50 of 2.1 nM. In turn, `CCN(C(=O)Cn1c(C(=O)N[C@H]2CC[C@H](C(=O)NCCCCCC(=O)NCCOCCOCCC(=O)ON3C(=O)CCC3=O)CC2)cc2sccc21)c1cccc(C)c1` [JRW-0520, 2,5-dioxopyrrolidin-1-yl 1-(trans-4-(4-(2-(ethyl(m-tolyl)amino)-2-oxoethyl)-4H-thieno[3,2-b]pyrrole-5-carboxamido)cyclohexyl)-1,8-dioxo-12,15-dioxa-2,9-diazaoctadecan-18-oate] returned an IC50 of 94 nM.

In turn, `CCN(C(=O)Cn1c(C(=O)N[C@H]2CC[C@H](C(=O)NCCCCCC(=O)NCCOCCOCCOCCC(=O)ON3C(=O)CCC3=O)CC2)cc2sccc21)c1cccc(C)c1` [JRW-0525] showed an IC50 of 84 nM. Same read-out and setting: under `CCN(C(=O)Cn1c(C(=O)N[C@H]2CC[C@H](C(=O)NCCCCCC(=O)NCCOCCOCCOCCOCCC(=O)ON3C(=O)CCC3=O)CC2)cc2sccc21)c1cccc(C)c1` [JRW-0533] stands 92 nM; under `CCN(C(=O)Cn1c(C(=O)N[C@H]2CC[C@H](C(=O)NCCCCCCNC(=O)CCOCCOCCNC(=O)CCN3C(=O)C=CC3=O)CC2)cc2sccc21)c1cccc(C)c1` [JRW-0559], 33 nM. The same measure, in the same setting: under `CCc1cccc(N(CC)C(=O)Cn2c(C(=O)N[C@H]3CC[C@H](C(=O)NCCCCCCCC(=O)OC)CC3)cc3ccccc32)c1` [JRW-0597, methyl 8-(trans-4-(1-(2-(ethyl(3-ethylphenyl)amino)-2-oxoethyl)-1H-indole-2-carboxamido)cyclohexane-1-carboxamido)octanoate] stands 0.16 nM; under `CCc1cccc(N(CC)C(=O)Cn2c(C(=O)N[C@H]3CC[C@H](C(=O)NCCCCCCCC(=O)Oc4ccccc4)CC3)cc3ccccc32)c1` [JRW-0605, phenyl 8-(trans-4-(1-(2-(ethyl(3-ethylphenyl)amino)-2-oxoethyl)-1H-indole-2-carboxamido)cyclohexane-1-carboxamido)octanoate], 0.12 nM.

`CCc1cccc(N(CC)C(=O)Cn2c(C(=O)N[C@H]3CC[C@H](C(=O)NCCCCCCI)CC3)cc3ccccc32)c1` [JRW-0622, 1-(2-(ethyl(3-ethylphenyl)amino)-2-oxoethyl)-N-(trans-4-((6-iodohexyl)carbamoyl)cyclohexyl)-1H-indole-2-carboxamide] yielded a half-maximal inhibitory concentration (IC50) of 0.14 nM.

For the compound `CCc1cccc(N(CC)C(=O)Cn2c(C(=O)N[C@H]3CC[C@H](C(=O)NCCCCCCBr)CC3)cc3ccccc32)c1` [JRW-0626, N-(trans-4-((6-bromohexyl)carbamoyl)cyclohexyl)-1-(2-(ethyl(3-ethylphenyl)amino)-2-oxoethyl)-1H-indole-2-carboxamide], it took 0.2 nM to reach half-maximal inhibition (IC50). On the same count and under the same terms, with `CCc1cccc(N(CC)C(=O)Cn2c(C(=O)N[C@H]3CC[C@H](C(=O)NCCCCCCNC(=O)c4ccc5c(c4)C(=O)OC54c5ccc(O)cc5Oc5cc(O)ccc54)CC3)cc3ccccc32)c1` [JRW-0818, N-(trans-4-((6-(3′,6′-dihydroxy-3-oxo-3H-spiro[isobenzofuran-1,9′-xanthene]-5-carboxamido)hexyl)carbamoyl)cyclohexyl)-1-(2-(ethyl(3-ethylphenyl)amino)-2-oxoethyl)-1H-indole-2-carboxamide] the figure was 1.2 nM. For the compound `CCc1cccc(N(CC)C(=O)Cn2c(C(=O)N[C@H]3CC[C@H](C(=O)NCCCCCCNC(=O)c4ccc5c(c4)C4(OC5=O)c5ccc(N(C)C)cc5Oc5cc(N(C)C)ccc54)CC3)cc3ccccc32)c1` [JRW-822, N-(trans-4-((6-(3′,6′-bis(dimethylamino)-3-oxo-3H-spiro[isobenzofuran-1,9′-xanthene]-6-carboxamido)hexyl)carbamoyl)cyclohexyl)-1-(2-(ethyl(3-ethylphenyl)amino)-2-oxoethyl)-1H-indole-2-carboxamide], the IC50 stood at 3.3 nM. Still for that read-out and setting: with `CCN(C(=O)Cn1c(C(=O)N[C@H]2CC[C@H](C(=O)NCCCCCCNC(=O)c3ccc4c(c3)C3(OC4=O)c4ccc(N(C)C)cc4Oc4cc(N(C)C)ccc43)CC2)cc2sccc21)c1cccc(C)c1` [JRW-0824] the figure was 180 nM. On the same count and under the same terms, under `CCc1cccc(N(CC)C(=O)Cn2c(C(=O)N[C@H]3CC[C@H](C(=O)NCCCCCCNC(=O)CCc4ccc5n4[B-](F)(F)[N+]4=C(C)C=C(C)C4=C5)CC3)cc3ccccc32)c1` [JRW-0827, N-(trans-4-((6-(3-(5,5-difluoro-7,9-dimethyl-5H-514,614-dipyrrolo[1,2-c:2′,1′-f][1,3,2]diazaborinin-3-yl)propanamido)hexyl)carbamoyl)cyclohexyl)-1-(2-(ethyl(3-ethylphenyl)amino)-2-oxoethyl)-1H-indole-2-carboxamide] stands 2.7 nM; under `CCN(C(=O)Cn1c(C(=O)N[C@H]2CC[C@H](C(=O)NCCCCCCNC(=O)CCc3ccc4n3[B-](F)(F)[N+]3=C(C)C=C(C)C3=C4)CC2)cc2sccc21)c1cccc(C)c1` [JRW-0829, N-(trans-4-((6-(3-(5,5-difluoro-7,9-dimethyl-5H-514,614-dipyrrolo[1,2-c:2′,1′-f][1,3,2]diazaborinin-3-yl)propanamido)hexyl)carbamoyl)cyclohexyl)-4-(2-(ethyl(m-tolyl)amino)-2-oxoethyl)-4H-thieno[3,2-b]pyrrole-5-carboxamide], 480 nM. The same measure, in the same setting: with `CCN(C(=O)Cn1c(C(=O)N[C@H]2CC[C@H](C(=O)NCCCCCCCC(=O)ON3C(=O)CC(S(=O)(=O)O)C3=O)CC2)cc2sccc21)c1cccc(C)c1` (stereo partly drawn) [JRW-0830, sodium 1-((8-(trans-4-(4-(2-(ethyl(m-tolyl)amino)-2-oxoethyl)-4H-thieno[3,2-b]pyrrole-5-carboxamido)cyclohexane-1-carboxamido)octanoyl)oxy)-2,5-dioxopyrrolidine-3-sulfonate] the figure was 4.2 nM. The compound `CCN(C(=O)Cn1c(C(=O)N[C@H]2CC[C@H](C(=O)NCCCCCCCC(=O)Oc3ccc(F)cc3)CC2)cc2sccc21)c1cccc(C)c1` [JRW-0831] gave an IC50 of 320 nM. As for `CCN(C(=O)Cn1c(C(=O)N[C@H]2CC[C@H](C(=O)NCCCCCCCC(=O)Oc3cc(F)cc(F)c3)CC2)cc2sccc21)c1cccc(C)c1` [JRW-0833, 3,5-difluorophenyl 8-(trans-4-(4-(2-(ethyl(m-tolyl)amino)-2-oxoethyl)-4H-thieno[3,2-b]pyrrole-5-carboxamido)cyclohexane-1-carboxamido)octanoate], half-maximal inhibition (IC50) required 20 nM. Still for that read-out and setting: with `CCN(C(=O)Cn1c(C(=O)N[C@H]2CC[C@H](C(=O)NCCCCCCCC(=O)Oc3ccc(C#N)cc3)CC2)cc2sccc21)c1cccc(C)c1` [JRW-0834, 4-cyanophenyl 8-(trans-4-(4-(2-(ethyl(m-tolyl)amino)-2-oxoethyl)-4H-thieno[3,2-b]pyrrole-5-carboxamido)cyclohexane-1-carboxamido)octanoate] the figure was 3.3 nM; with `CCN(C(=O)Cn1c(C(=O)N[C@H]2CC[C@H](C(=O)NCCCCCNC(=O)CCl)CC2)cc2sccc21)c1cccc(C)c1` [JRW-0844, N-(trans-4-((5-(2-chloroacetamido)pentyl)carbamoyl)cyclohexyl)-4-(2-(ethyl(m-tolyl)amino)-2-oxoethyl)-4H-thieno[3,2-b]pyrrole-5-carboxamide], 41 nM. With `CCN(C(=O)Cn1c(C(=O)N[C@H]2CC[C@H](C(=O)NCCCCCCNC(=O)CCl)CC2)cc2sccc21)c1cccc(C)c1` [JRW-0846, N-(trans-4-((6-(2-chloroacetamido)hexyl)carbamoyl)cyclohexyl)-4-(2-(ethyl(m-tolyl)amino)-2-oxoethyl)-4H-thieno[3,2-b]pyrrole-5-carboxamide], the 50% inhibitory concentration (IC50) worked out at 16 nM. The same measure, in the same setting: under `CCN(C(=O)Cn1c(C(=O)N[C@H]2CC[C@H](C(=O)NCCCCCCCC(=O)Oc3c(F)c(F)cc(F)c3F)CC2)cc2sccc21)c1cccc(C)c1` [JRW-0847] stands 0.3 nM. Still for that read-out and setting: with `CCN(C(=O)Cn1c(C(=O)N[C@H]2CC[C@H](C(=O)NCCCCCNC(=O)CBr)CC2)cc2sccc21)c1cccc(C)c1` [JRW-0870, N-(trans-4-((5-(2-bromoacetamido)pentyl)carbamoyl)cyclohexyl)-4-(2-(ethyl(m-tolyl)amino)-2-oxoethyl)-4H-thieno[3,2-b]pyrrole-5-carboxamide] the figure was 42 nM; with `CCc1cccc(N(CC)C(=O)Cn2c(C(=O)N[C@H]3CC[C@H](C(=O)NCCCCCCCCNC(=O)c4ccc5c(c4)C(=O)OC54c5ccc(O)cc5Oc5cc(O)ccc54)CC3)cc3ccccc32)c1` [JRW-0882, N-(trans-4-((8-(3′,6′-dihydroxy-3-oxo-3H-spiro[isobenzofuran-1,9′-xanthene]-5-carboxamido)octyl)carbamoyl)cyclohexyl)-1-(2-(ethyl(3-ethylphenyl)amino)-2-oxoethyl)-1H-indole-2-carboxamide], 1.1 nM.

The experiment is the same for the next values; noted with them: 0.4 ng/ml NANOLUC in CO2 independent media+10% FBS; final furimazine 10 μM; no pre-incubation noted; read-out: IC50.
On to `CCN(C(=O)Cn1c(C(=O)N[C@H]2CC[C@H](C(=O)NCCCCCCNC(=O)c3ccc4c(c3)C3(OC4=O)c4ccc(N)cc4Oc4cc(N)ccc43)CC2)cc2sccc21)c1cccc(C)c1` [JRW-0863], for which the IC50 worked out at 36 nM.
